Measured values: patent US20030143633A1, “Factors participating in degranulation of mast cells, dnas encoding the same, method of screening of these factors and the inhibitors” (priority 2000, published 2003)

B1: mG#101: recombinant mouse first Rab protein, SEQ ID NO: 1 (protein)
chain: MLLGDSGVGKTCFLIQFKDGAFLSGTFIATVGIDFRNKVVTVDGXRVKLQIWDTAGQERFRSVTHAYYRDAQALLLLYDITNKSSFDNIRAWLTEIHEYAQRDVVIMLLGNKADXSSERVIRSEDGETLAREYGVPFXETSAKTGMNVELAFLAIAKELKYRAGXQXDEPSFQIRDYVESQKKRSSCCSFV
modifications: Mus musculus or Homo sapiens; (45) Ala or Val.
B2: mG#102: recombinant mouse second Rab protein, SEQ ID NO: 4 (protein)
chain: MQTPHKEHLYKLLVIGDLGVGKTSIIKRYVHQNFSSHYRATIGVDFALKVLHWDPETVVRLQLWDIAGQERFGNMTRVYYREAMGAFIVFDVTRPATFEAVAKWKNDLDSKLXLPNGKPVSVVLLANKCDQGKDVLMNNGLKMDQFCKEHGFVGWFETSAKENINIDEASRCLVKHILANECDLXESIEPDXVKPHLTSXKVXSCSGCAKS
modifications: Mus musculus or Homo sapiens; (113) Thr or Ser.

Experiments:
VT strain [1] = assay: Two-hybrid positive control recombinant yeast VT strain growth (nonspecific effect control); type: cell-based, S. cerevisiae
[2] = test system: interaction between mG#102 and mA#10283; assay: Two-hybrid recombinant yeast #102 strain growth in histidine defective medium; type: cell-based, S. cerevisiae; details: for specific suppression of #102 strain growth (in words): compared with VT strain; for Suppression (% control) of growth of yeast strain, #102 strain: turbidity 590 nm, 18-20 hr
Procedure: (§1) Two expression vectors respectively incorporating mG#102 in pAS2-1 vector and mA#10283 in pACT2 vector were introduced into S. cerevisiae CG1945 strain to give a recombinant yeast #102 strain (see Example 3). As a control, recombinant yeast VT strain into which plasmid for positive control (pVA3-1, pTD1-1) of MATCHMAKER Two-Hybrid System 2 had been introduced was prepared. The culture media of #102 strain and VT strain that reached confluent by shake culture overnight at 30° C. in an SD medium supplemented with histidine were diluted 200-fold with a fresh histidine defective SD medium (containing 1 mM 3-AT) and dispensed to a 96 well plate by 0.09 ml/well. A PBS solution containing a compound whose effect is desired to be examined was added to each well, PBS was added to the well of 100% control, and 1M 3-AT-containing PBS solution was added to the well of 0% control respectively in a volume of 0.01 ml/well and mixed by a plate shaker MicroMixer E-36 (manufactured by TAITEC). Then, after static culture at 30° C. for 18-20 hr, culture media were suspended in a plate shaker, and turbidity (absorbance at 590 nm) was measured with a 96 well plate spectrophotometer Multiskan BICHROMATIC (manufactured by Labsystems) The data of the turbidity measured were evaluated on conversion to % control based on the turbidity data of 100% control and 0% control. When a common effect appears between the #102 strain and the VT strain, it was considered a nonspecific effect on the two-hybrid system rather than an effect on the interaction between mG#102 and mA#10283.
(§2) Using the system shown in Example 7, 0.09 ml each of #102 strain yeast or VT strain yeast (control) was placed in each well of a 96 well plate, and a PBS solution containing a particular compound which is unknown as to its effect on the interaction between mG#102 and mA#10283 was added by 0.01 ml, which was followed by culture at 30° C. for 18-20 hr. Then, the culture medium was suspended in a plate shaker and the turbidity (absorbance at 590 nm) was measured with a 96 well plate absorbance meter. The turbidity of the well to which PBS solution without the compound was added was taken as 100% control and the turbidity of the well to which PBS solution containing 3-AT (final concentration 100 mM) instead of the compound was added was taken as 0% control, and the effect of the compound was evaluated by conversion to percentage.

[3] = test system: interaction between mG#102 and mA#10283; assay: as above; type: cell-based, S. cerevisiae; details: histidine defective SD medium
[4] = test system: mouse bone marrow-derived mast cells (BMMC); assay: IgE/DNP-HSA antigen-induced degranulation of BMMC (hexosaminidase release); type: cell-based; details: for Suppression (% control) of degranulation of mast cell: fluorescence of control group without compound = 100%
Procedure: BMMC prepared by the method shown in Example 1 was suspended in 10% FBS-containing RPMI at a concentration of 3×10^6/ml. To this BMMC was added a mouse monoclonal anti-DNP IgE antibody (manufactured by YAMASA) at 3 μg/ml, and the mixture was stood at room temperature for 30 min. Then, BMMC treated with an IgE antibody was washed with buffer A (133 mM NaCl, 5 mM KCl, 0.9 mM NaH2PO4, 8 mM glucose, 1 mg/ml BSA, 0.01 mM CaCl2, 20 mM HEPES, pH 7.4) and suspended in buffer A containing 1 mM CaCl2 at a concentration of 3×10^6/ml. This BMMC suspension (0.1 ml/well) was added in a 96 well multiplate and a solution of the compound to be examined (0.05 ml/well) and a DNP-HSA (manufactured by Sigma) solution (40 ng/ml, 0.05 ml/well) as an antigen were added. After standing at room temperature for 30 min, the mixture was centrifuged at 1000 rpm for 5 min and the supernatant was recovered for the 96 well multiplate by 0.05 ml/well. To this supernatant was added a 4-methylumbelliferyl-2-acetamide-2-deoxy-β-D-glucopyranoside (manufactured by Funakoshi Co., Ltd., substrate of hexosaminidase) solution (1 mM; in 0.2 M citrate buffer (pH 4.5)) at 0.05 ml/well. After standing at 37° C. for 90 min, 1M Tris solution (0.15 ml) was added to stop the reaction, and the amount of fluorescence in each well was measured by fluoroscan (manufactured by Labo Systems). The suppressive effect of the compound on the degranulation of BMMC was calculated based on the amount of fluorescence in the control group free of addition of the compound as 100%. As a control compound, tranilast was used.

VT strain [5] = assay: Two-hybrid positive control recombinant yeast VT strain growth (nonspecific effect control); type: cell-based, S. cerevisiae; details: turbidity 590 nm, 18-20 hr
Procedure: as §1, §2

BMMC = BMMC digitonin degranulation system (histamine release); type: cell-based, mouse; details: protein added to digitonin-permeabilised BMMC, CaCl2 stimulation, histamine RIA
Procedure: The recombinant protein was added to a BMMC digitonin degranulation system to examine the effect. BMMC was washed twice with a buffer having the following composition to give a suspension at 2×10^6 cells/ml and dispensed to a 96-well U-bottom plate by 0.05 ml/well. Then, mG#101 or mG#102 recombinant protein (0.05 ml/well) was added. Furthermore, 4.5 μM digitonin was added by 0.05 ml/well and the plate was stood at room temperature for 5 min. Thereafter 4 mM CaCl2 was added by 0.05 ml/well and the plate was stood at room temperature for 10 min. After standing, the concentration of histamine liberated in the supernatant was determined by a histamine RIA kit (Eiken Chemical Co., Ltd.). buffer composition:
The recombinant protein was added to the digitonin degranulation system (see Example 5) and the effect was examined.

[6] = compound concentration 0.3 μg/ml
[7] = compound concentration 10 μg/ml
[8] = compound concentration 30 μg/ml

| Molecule | specific suppression of #102 strain growth (in words) [2] | Suppression (% control) of growth of yeast strain, #102 strain ([2]; compound concentration 1 μg/ml) [% control] | Suppression (% control) of growth of yeast strain, #102 strain ([2]; compound concentration 3 μg/ml) [% control] | Suppression (% control) of growth of yeast strain, #102 strain [2, 7] [% control] | Suppression (% control) of degranulation of mast cell ([4]; concentration 1 μg/ml) [% control] | Suppression (% control) of degranulation of mast cell ([4]; concentration 3 μg/ml) [% control] | Suppression (% control) of degranulation of mast cell ([4]; concentration 10 μg/ml) [% control] | Suppression (% control) of degranulation of mast cell ([4]; concentration 30 μg/ml) [% control] | Suppression (% control) of degranulation of mast cell ([4]; concentration 100 μg/ml) [% control] | Suppression (% control) of growth of yeast strain, VT strain (VT strain [5]; compound concentration 1 μg/ml) [% control] | Suppression (% control) of growth of yeast strain, VT strain (VT strain [5]; compound concentration 3 μg/ml) [% control] | Suppression (% control) of growth of yeast strain, VT strain (VT strain [5]; [7]) [% control] | effect of recombinant protein on degranulation (in words) (BMMC) | further results |
| --- | --- | --- | --- | --- | --- | --- | --- | --- | --- | --- | --- | --- | --- | --- |
| Nc1nc[nH]n1 [Formula 3-AT, 3-amino-1,2,4-triazole] |  |  |  |  |  |  |  |  |  |  |  |  |  | growth of recombinant yeast strain with 100 mM 3-AT (in words) (VT strain [1]; 100 mM 3-AT): neither recombinant yeast strain could grow; concentration of 3-AT wherein the recombinant yeast strain grows in a reporter gene (histidine synthase)-dependent manner (VT strain [1]; histidine defective SD medium): 1 to 10 mM; growth of recombinant yeast strain with 100 mM 3-AT (in words) ([2]; #102 strain, 100 mM 3-AT): neither recombinant yeast strain could grow; concentration of 3-AT wherein the recombinant yeast strain grows in a reporter gene (histidine synthase)-dependent manner [3]: 1 to 10 mM |
| CC(C)=NNc1nc(-c2ccc(-c3ccccc3)cc2)cs1 [Formula [III], acetone-4-(4-phenyl)phenyl-1,3-thiazol-2-yl-hydrazone] | specifically suppressed #1022 strain in a dose-dependent manner | 57 | 4 | 1 | 102 | 87 | 39 | 20 | 6 | 85 | 77 | 63 |  | Suppression (% control) of growth of yeast strain, #102 strain [2, 6]: 99 % control; suppression of degranulation of mast cells (in words) [4]: suppressed degranulation of mast cells in a dose-dependent manner; Suppression (% control) of growth of yeast strain, VT strain (VT strain [5]; [6]): 99 % control |
| O=C(N/N=C/c1ccc([N+](=O)[O-])o1)c1ccccc1Br [Formula [IV], 5-nitro-2-furaldehyde-2-brombenzoylhydrazne] | specifically suppressed #1022 strain in a dose-dependent manner | 99 | 99 | 36 |  |  |  |  |  | 102 | 102 | 98 |  | Suppression (% control) of growth of yeast strain, #102 strain [2, 8]: −2 % control; Suppression (% control) of growth of yeast strain, VT strain (VT strain [5]; [8]): 63 % control |
| COc1ccc(/C=C/C(=O)Nc2ccccc2C(=O)O)cc1OC [tranilast, reference compound] |  |  |  |  | 96 | 90 | 78 | 52 | 22 |  |  |  |  |  |
| B1 |  |  |  |  |  |  |  |  |  |  |  |  | inhibited degranulation in a concentration dependent manner |  |
| B2 |  |  |  |  |  |  |  |  |  |  |  |  | inhibited degranulation in a concentration dependent manner |  |
